For assay [1], the system named is SGK2. It counts as biochemical, human.
For assay [2], the target named is T1, SGK2 (Homo sapiens, UniProt Q9HBY8).
T1 sequence (Q9HBY8 whole entry, looked up): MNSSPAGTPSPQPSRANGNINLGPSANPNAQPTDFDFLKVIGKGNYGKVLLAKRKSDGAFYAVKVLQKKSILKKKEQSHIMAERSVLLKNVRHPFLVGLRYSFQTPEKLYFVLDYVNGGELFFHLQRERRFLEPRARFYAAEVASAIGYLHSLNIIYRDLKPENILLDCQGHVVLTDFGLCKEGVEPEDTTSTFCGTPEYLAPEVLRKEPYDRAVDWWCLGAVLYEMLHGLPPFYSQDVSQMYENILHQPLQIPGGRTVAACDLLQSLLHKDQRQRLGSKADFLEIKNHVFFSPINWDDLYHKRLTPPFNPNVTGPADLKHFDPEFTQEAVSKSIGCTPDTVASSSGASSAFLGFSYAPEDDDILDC
In kind it is biochemical.

The values below come from US20020123056A1 (priority 2000, published 2002).

On to `COC[C@@H]([C@H](O)[C@H](O)C(=O)NCC[C@H](C)c1nc(/C=C/C[C@@H]2O[C@]3(C[C@@H](O)[C@@H]2C)O[C@H]([C@H](C[C@H](O)[C@H](C)[C@H](O)[C@H](C)/C=C(C)/C(C)=C/C=C/C(C)=C\C#N)OC)[C@H](OP(=O)(O)O)C3(C)C)co1)N(C)C` [Calyculin A], for which the “effect on SGK2 kinase activity” value in the assay on SGK2 [1] is “stimulated SGK2 kinase activity”.
In the case of `C=C1[C@@H](O)[C@@H]2O[C@]3(CC[C@H](/C=C/[C@@H](C)[C@@H]4CC(C)=C[C@@]5(O[C@H](C[C@@](C)(O)C(=O)O)CC[C@H]5O)O4)O3)CC[C@H]2O[C@@H]1[C@@H](O)C[C@H](C)[C@H]1O[C@@]2(CCCCO2)CC[C@H]1C` [Okadaic Acid], in the assay with SGK2 [1], the “effect on SGK2 kinase activity” value is “stimulated SGK2 kinase activity”.
Regarding CKRPRAASFAE [PKB-sub], the “incorporation of 32P into peptide substrate” value in the assay with SGK2 [2] is on record as “significant incorporation”.
Regarding “KTFCGTPEYLAPEVRREPRILSEEEQEMFRDFDYI [PDK1 peptide]”, the “incorporation of 32P into peptide substrate” value with SGK2 [2] is reported as “no significant incorporation”.
